According to patent publication US20210395794A1, “Antimicrobial Susceptibility Assay and Kit” (The University of Manchester, priority 2018, published 2021):

How the values were obtained:
E. coli in UTI samples = assay: Flow cytometric antibiotic sensitivity of positive UTI urine samples (Firsway clinic) in Terrific Broth with diS-C3(5); type: cell-based; design: key: R—resistant; S—sensitive; conditions: antibiotic at nominal 3x MIC
Excerpt: Initial studies used a Sony SH-800 instrument, but all studies reported here used an Intellicyt® iQue screener PLUS. This instrument is based in significant measure on developments by Sklar and colleagues (e.g. (Edwards et al. 2009; Sklar et al. 2007; Tegos et al. 2014)), and uses segmented flow (Skeggs 1957) to sample from 96- or 384-well U- or V-bottom plates prior to their analysis. The iQue Plus contains three excitation sources (405 nm, 488 nm, 640 nm) and 7 fixed filter detectors (with a midpoint/range in nm of 445/45, 530/30, 572/28, 585/40, 615/24, 675/30, 780/60, giving 13 fluorescence channels) whose outputs are stored as both ‘height’ and area, using the FCS3.0 data file standard (Seamer et al. 1997). Forward and side scatter are obtained from the 488 nm excitation source. Detection channels are referred to by the laser used (405 nm violet VL, 488 nm blue BL, and 640 nm red RL) and the detector number in order of possible detectors with a longer wavelength. Thus RL1, as used for detecting di-S-C3(5), implies the red laser and the 675/30 detector. Data are collected from all channels, using a dynamic range of 7 logs. Many parameters may be used to vary the precise performance of the instrument. Those we found material to provide the best reproducibility and to minimise carryover, and their selected values, are as follows: Automatic prime—60 secs (in Qsol buffer); Pre-plate shake—15 s and 1500 rpm; Sip time—2 s (actual sample uptake); Additional sip time—0.5 s (the gap between sips); Pump speed—29 rpm (1.5 μL·s^−1 sample uptake); Plate model—U-bottom well plate (for 96 well plates); Mid plate cleanup—After every well (4 washes; 0.5 s each in Qsol buffer); Inter-well shake—1500 rpm; after 6 wells, 4 sec in Qsol buffer; Flush and Clean—30 sec with Decon and Clean buffers followed by 60 sec with deionised water. The Forecyt™ software supplied with the instrument may be used to gate and display all the analyses post hoc. It, and the FlowJo software, were used in the preparation of the cytograms shown. Where used, di-S-C3(5) was present at a final concentration of 3 μM; its analysis used excitation at 640 nm and detection at 675±15 nm, the fluorescence channel being referred to as RL1. For DNA analyses, cells were fixed by injection into ice-cold ethanol (final concentration 70%), washed twice by centrifugation in 0.1 M-Tris/HCl buffer, pH 7.4, before resuspension in the same buffer containing mithramycin (50 μg mL^−1) and ethidium bromide (25 μg mL^−1), MgCl2, (25 mM) and NaCl (100 mM) (Boye et al. 1983). […] All the solutions and media used were filtered through 0.2 μm filter.
Samples were taken at various times during the day, kept at 4° C., delivered to the Manchester laboratory by taxi, plated out (LB agar containing as appropriate the stated antibiotics at 3 times normal MIC) to assess microbial numbers and antibiotic sensitivity, the remaining sample kept again at 4° C., and analysed flow cytometrically within 18 h. For flow cytometric assessment, cells were diluted into 37° C. Terrific Broth containing 3 μM diS-C3(5) plus any appropriate antibiotic, and assayed as above. For other experiments (not shown) cells were filtered (0.45 μm) and diluted as appropriate into warmed terrific broth.
Finally, we wished to determine whether this method, as developed in laboratory cultures, could be applied to candidate UTI specimens ‘as received’ in a doctor's surgery.

E. coli MG1655 = assay: Flow cytometric particle counting of proliferation with antibiotic in 20 mins (FIG. 6C); type: cell-based; conditions: sensitive strain E. coli MG1655, Terrific Broth
Excerpt: Initial studies used a Sony SH-800 instrument, but all studies reported here used an Intellicyt® iQue screener PLUS. This instrument is based in significant measure on developments by Sklar and colleagues (e.g. (Edwards et al. 2009; Sklar et al. 2007; Tegos et al. 2014)), and uses segmented flow (Skeggs 1957) to sample from 96- or 384-well U- or V-bottom plates prior to their analysis. The iQue Plus contains three excitation sources (405 nm, 488 nm, 640 nm) and 7 fixed filter detectors (with a midpoint/range in nm of 445/45, 530/30, 572/28, 585/40, 615/24, 675/30, 780/60, giving 13 fluorescence channels) whose outputs are stored as both ‘height’ and area, using the FCS3.0 data file standard (Seamer et al. 1997). Forward and side scatter are obtained from the 488 nm excitation source. Detection channels are referred to by the laser used (405 nm violet VL, 488 nm blue BL, and 640 nm red RL) and the detector number in order of possible detectors with a longer wavelength. Thus RL1, as used for detecting di-S-C3(5), implies the red laser and the 675/30 detector. Data are collected from all channels, using a dynamic range of 7 logs. Many parameters may be used to vary the precise performance of the instrument. Those we found material to provide the best reproducibility and to minimise carryover, and their selected values, are as follows: Automatic prime—60 secs (in Qsol buffer); Pre-plate shake—15 s and 1500 rpm; Sip time—2 s (actual sample uptake); Additional sip time—0.5 s (the gap between sips); Pump speed—29 rpm (1.5 μL·s^−1 sample uptake); Plate model—U-bottom well plate (for 96 well plates); Mid plate cleanup—After every well (4 washes; 0.5 s each in Qsol buffer); Inter-well shake—1500 rpm; after 6 wells, 4 sec in Qsol buffer; Flush and Clean—30 sec with Decon and Clean buffers followed by 60 sec with deionised water. […] Where used, di-S-C3(5) was present at a final concentration of 3 μM; its analysis used excitation at 640 nm and detection at 675±15 nm, the fluorescence channel being referred to as RL1. […]

[1] = UTI sample May 25, 2018 (first listed)
[2] = UTI sample May 25, 2018 (second listed)

SMILES: CC1(C)S[C@@H]2[C@H](NC(=O)[C@H](N)c3ccccc3)C(=O)N2[C@H]1C(=O)O [Ampicillin]
- Antibiotic sensitivity (E. coli in UTI samples; UTI sample Jul. 16, 2018): R
- Antibiotic sensitivity (E. coli in UTI samples; UTI sample Jul. 18, 2018): R
- Antibiotic sensitivity (E. coli in UTI samples; UTI sample Jul. 20, 2018): S
- Antibiotic sensitivity (E. coli in UTI samples; UTI sample Jun. 6, 2018): R
- Antibiotic sensitivity (E. coli in UTI samples; [1]): R
- Antibiotic sensitivity (E. coli in UTI samples; [2]): S
- Effect on cell proliferation (E. coli MG1655): work effectively

SMILES: O=C(O)c1cn(C2CC2)c2cc(N3CCNCC3)c(F)cc2c1=O [Ciprofloxacin]
- Effect on cell proliferation (E. coli MG1655): work effectively

SMILES: O=C1CN(/N=C/c2ccc([N+](=O)[O-])o2)C(=O)N1 [Nitrofurantoin]
- Antibiotic sensitivity (E. coli in UTI samples; UTI sample Jul. 16, 2018): S
- Antibiotic sensitivity (E. coli in UTI samples; UTI sample Jul. 18, 2018): R
- Antibiotic sensitivity (E. coli in UTI samples; UTI sample Jul. 20, 2018): S
- Antibiotic sensitivity (E. coli in UTI samples; UTI sample Jun. 6, 2018): S
- Antibiotic sensitivity (E. coli in UTI samples; [1]): S
- Antibiotic sensitivity (E. coli in UTI samples; [2]): S

SMILES: COc1cc(Cc2cnc(N)nc2N)cc(OC)c1OC [Trimethoprim]
- Antibiotic sensitivity (E. coli in UTI samples; UTI sample Jul. 16, 2018): S
- Antibiotic sensitivity (E. coli in UTI samples; UTI sample Jul. 18, 2018): S
- Antibiotic sensitivity (E. coli in UTI samples; UTI sample Jul. 20, 2018): R
- Antibiotic sensitivity (E. coli in UTI samples; UTI sample Jun. 6, 2018): S
- Antibiotic sensitivity (E. coli in UTI samples; [1]): R
- Antibiotic sensitivity (E. coli in UTI samples; [2]): S
- Effect on cell proliferation (E. coli MG1655): work effectively
